Active and inactive are the calls of the source.
Assays:
[1] = biological target: Trypsin (Sus scrofa, UniProt P00761); assay: trypsin protease activity blockade – biochemical, quenched peptide fluorescence, cherry-pick, selectivity assay for Rce1 protease inhibitor project, dose response (AID 488789)
[2] = biological target: CAAX prenyl protease 2 (Homo sapiens, UniProt Q9Y256); assay: inhibition of Ras-converting CAAX protease Rce1 – biochemical, yeast membranes, quenched-peptide fluorescence, cherry-pick, dose response (AID 588849)
Sequence of CAAX prenyl protease 2 (Q9Y256 whole entry): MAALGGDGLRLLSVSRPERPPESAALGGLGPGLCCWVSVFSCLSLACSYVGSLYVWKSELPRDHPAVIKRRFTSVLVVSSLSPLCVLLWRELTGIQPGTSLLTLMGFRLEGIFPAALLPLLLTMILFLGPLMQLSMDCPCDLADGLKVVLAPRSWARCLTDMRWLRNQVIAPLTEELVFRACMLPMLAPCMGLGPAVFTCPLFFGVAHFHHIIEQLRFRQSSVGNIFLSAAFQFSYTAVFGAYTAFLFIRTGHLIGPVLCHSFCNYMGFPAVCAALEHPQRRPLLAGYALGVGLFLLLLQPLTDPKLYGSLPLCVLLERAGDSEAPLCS

[3] = blockade of melanocortin 4 receptor signaling – cell-based, plate reader, cherry pick, counter-screen for LGR2 antagonist project, dose response (AID 743444); type: functional;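 also: transfected HEK 293 cells stimulated with alpha-MSH peptide; potency of inhibitors of the alpha-MSH evoked signal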
[4] = biological target: Luciferin 4-monooxygenase (Photuris pensylvanica, UniProt Q27757); assay: inhibition of Cell Titer Glo luciferase signal – biochemical, luminescence, cherry-picks, counter-screen for HSF-1 reporter inhibitor project, dose response (AID 588847)
Sequence of Luciferin 4-monooxygenase (Q27757 whole entry): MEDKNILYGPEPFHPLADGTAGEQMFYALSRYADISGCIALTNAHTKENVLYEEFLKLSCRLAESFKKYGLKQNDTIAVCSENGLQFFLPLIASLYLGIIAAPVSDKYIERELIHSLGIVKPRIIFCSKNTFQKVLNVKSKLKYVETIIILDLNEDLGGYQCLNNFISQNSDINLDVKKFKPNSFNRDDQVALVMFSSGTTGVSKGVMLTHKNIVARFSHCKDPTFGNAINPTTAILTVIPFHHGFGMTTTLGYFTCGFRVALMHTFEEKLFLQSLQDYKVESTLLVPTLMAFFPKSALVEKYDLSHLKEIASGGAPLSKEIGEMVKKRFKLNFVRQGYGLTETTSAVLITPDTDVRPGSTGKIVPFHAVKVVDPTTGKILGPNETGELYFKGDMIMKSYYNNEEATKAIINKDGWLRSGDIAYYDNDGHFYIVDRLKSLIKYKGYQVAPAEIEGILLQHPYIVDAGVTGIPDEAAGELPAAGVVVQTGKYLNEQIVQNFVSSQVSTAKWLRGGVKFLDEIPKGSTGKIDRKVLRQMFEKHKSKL

[5] = blockers of bursicon-stimulated LGR2 cAMP reporter – cell-based, HEK293, CRE-luciferase reporter, cherry pick, set 2, dose response (AID 743343); type: functional;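 also: transfected cells were stimulated with diluted bursicon conditioned medium after compound addition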
[6] = system: Escherichia coli; assay: microbe, parasite or virus in culture
[7] = system: Vero; assay: viability of Vero cells under compound – cytotoxicity control for flavivirus capping enzyme inhibitors (AID 588742); type: functional; settings: Chlorocebus sabaeus
[8] = biological target: T1, Histone-lysine N-methyltransferase NSD2 (Homo sapiens, UniProt O96028); type: biochemical
T1 sequence (O96028 whole entry): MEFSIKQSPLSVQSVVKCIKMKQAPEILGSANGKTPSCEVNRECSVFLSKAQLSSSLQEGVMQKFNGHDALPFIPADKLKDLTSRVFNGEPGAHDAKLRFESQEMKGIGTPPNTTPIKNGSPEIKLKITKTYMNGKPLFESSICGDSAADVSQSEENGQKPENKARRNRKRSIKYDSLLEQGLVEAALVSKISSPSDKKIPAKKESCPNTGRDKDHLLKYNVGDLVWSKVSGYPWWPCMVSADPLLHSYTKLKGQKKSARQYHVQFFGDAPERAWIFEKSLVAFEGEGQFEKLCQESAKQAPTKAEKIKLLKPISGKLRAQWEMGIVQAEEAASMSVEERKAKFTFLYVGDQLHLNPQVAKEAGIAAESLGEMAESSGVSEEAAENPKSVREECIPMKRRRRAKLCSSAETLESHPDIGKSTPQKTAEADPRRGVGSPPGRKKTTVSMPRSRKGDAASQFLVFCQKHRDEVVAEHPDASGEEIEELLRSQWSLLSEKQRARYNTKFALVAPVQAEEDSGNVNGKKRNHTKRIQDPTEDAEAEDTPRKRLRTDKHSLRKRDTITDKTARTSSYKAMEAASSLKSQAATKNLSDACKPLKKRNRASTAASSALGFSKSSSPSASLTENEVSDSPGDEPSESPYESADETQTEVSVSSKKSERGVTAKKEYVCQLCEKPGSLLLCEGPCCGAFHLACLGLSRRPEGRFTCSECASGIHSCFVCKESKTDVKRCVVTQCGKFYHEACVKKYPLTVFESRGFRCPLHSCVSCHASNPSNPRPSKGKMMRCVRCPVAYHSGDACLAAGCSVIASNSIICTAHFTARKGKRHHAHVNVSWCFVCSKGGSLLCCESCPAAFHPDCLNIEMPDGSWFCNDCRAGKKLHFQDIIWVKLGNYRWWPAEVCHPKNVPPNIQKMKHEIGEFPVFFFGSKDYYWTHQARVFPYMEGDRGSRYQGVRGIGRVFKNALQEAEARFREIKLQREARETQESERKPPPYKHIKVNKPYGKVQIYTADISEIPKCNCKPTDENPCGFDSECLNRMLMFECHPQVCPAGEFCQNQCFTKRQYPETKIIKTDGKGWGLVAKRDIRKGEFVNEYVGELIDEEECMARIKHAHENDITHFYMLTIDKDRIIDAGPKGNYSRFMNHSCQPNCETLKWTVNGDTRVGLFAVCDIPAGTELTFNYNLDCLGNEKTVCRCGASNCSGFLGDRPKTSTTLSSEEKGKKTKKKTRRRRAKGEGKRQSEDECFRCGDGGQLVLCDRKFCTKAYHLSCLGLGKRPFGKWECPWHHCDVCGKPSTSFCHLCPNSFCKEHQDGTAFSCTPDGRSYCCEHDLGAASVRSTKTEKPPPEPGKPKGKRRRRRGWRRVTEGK

[9] = biological target: T2, Polyadenylate-binding protein 1 (Homo sapiens, UniProt P11940); assay: MLLE binding blockers, Cy5 peptide tracer – biochemical, fluorescence polarization, Cy5-PAM2 peptide, secondary, miRNA deadenylation inhibitor project, dose response (AID 602260); type: functional; settings: read-out: IC50_Mean
T2 sequence (P11940 whole entry): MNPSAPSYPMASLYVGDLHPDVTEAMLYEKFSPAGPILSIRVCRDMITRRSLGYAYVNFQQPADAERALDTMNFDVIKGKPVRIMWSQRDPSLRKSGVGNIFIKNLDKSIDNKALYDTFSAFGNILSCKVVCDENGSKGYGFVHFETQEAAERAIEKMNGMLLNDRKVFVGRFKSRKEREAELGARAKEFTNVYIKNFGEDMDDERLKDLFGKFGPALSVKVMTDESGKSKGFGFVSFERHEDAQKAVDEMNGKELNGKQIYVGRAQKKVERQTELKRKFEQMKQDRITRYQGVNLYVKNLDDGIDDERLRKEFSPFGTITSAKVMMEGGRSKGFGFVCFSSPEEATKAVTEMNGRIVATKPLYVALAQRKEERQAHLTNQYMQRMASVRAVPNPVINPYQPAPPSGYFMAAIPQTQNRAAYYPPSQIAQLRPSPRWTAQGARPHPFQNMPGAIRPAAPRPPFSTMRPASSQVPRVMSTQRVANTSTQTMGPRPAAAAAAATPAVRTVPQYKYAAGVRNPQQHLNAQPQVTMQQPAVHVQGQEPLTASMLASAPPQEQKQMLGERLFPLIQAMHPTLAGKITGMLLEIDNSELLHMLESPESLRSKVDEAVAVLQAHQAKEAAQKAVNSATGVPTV

[10] = biological target: Beta-arrestin-1 (Homo sapiens, UniProt P49407); assay: beta-arrestin/AP2 interaction blockers, potency – biochemical, cherry pick 1, beta2-adaptin appendage, flow cytometry, dose response (AID 588783); type: functional
Sequence of Beta-arrestin-1 (P49407 whole entry, the tested form may be a part): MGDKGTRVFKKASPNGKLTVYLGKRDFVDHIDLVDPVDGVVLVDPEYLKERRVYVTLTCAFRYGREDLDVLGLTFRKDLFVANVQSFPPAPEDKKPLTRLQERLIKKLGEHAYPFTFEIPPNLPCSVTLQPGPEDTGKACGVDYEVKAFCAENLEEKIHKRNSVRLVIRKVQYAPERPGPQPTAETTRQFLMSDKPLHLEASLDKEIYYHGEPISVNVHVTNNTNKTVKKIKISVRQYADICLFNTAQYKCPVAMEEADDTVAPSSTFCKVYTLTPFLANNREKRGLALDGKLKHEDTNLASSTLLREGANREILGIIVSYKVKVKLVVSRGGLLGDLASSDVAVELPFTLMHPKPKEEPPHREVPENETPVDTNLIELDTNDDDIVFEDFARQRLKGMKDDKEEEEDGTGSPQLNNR

[11] = biological target: T2, Polyadenylate-binding protein 1; assay: MLLE domain peptide-binding blockers, IC50 – biochemical, fluorescence polarization, FITC-PAM2 peptide, dose response (AID 602259); type: functional; settings: read-out: IC50_Mean
[12] = biological target: Paired box protein Pax-8 (Homo sapiens, UniProt Q06710); assay: PAX8 transcriptional activity inhibition in RMG-I – RMG-I cells, luciferase, cherry-pick, dose response (AID 687027); type: functional, cell-based;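 also: luciferase reporter driven by Pax8 target thyroperoxidase promoter measured by SteadyGlo luminescence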
Sequence of Paired box protein Pax-8 (Q06710 whole entry): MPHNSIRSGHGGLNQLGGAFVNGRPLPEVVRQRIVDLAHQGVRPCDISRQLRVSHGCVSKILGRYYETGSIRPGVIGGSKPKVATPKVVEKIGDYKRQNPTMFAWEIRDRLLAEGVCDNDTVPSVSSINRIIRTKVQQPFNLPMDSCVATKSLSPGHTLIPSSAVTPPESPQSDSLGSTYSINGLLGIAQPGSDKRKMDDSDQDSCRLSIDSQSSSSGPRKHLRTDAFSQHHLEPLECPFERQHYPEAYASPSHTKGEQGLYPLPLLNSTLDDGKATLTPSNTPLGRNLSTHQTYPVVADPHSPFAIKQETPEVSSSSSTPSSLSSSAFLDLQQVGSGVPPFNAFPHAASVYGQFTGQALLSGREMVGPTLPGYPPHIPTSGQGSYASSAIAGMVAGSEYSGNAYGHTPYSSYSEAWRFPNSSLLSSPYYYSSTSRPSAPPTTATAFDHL

[13] = biological target: T3, Rac GTPase-activating protein 1 (Homo sapiens, UniProt Q9H0H5); assay: blockers of MgcRacGAP-driven Rac1 GTP hydrolysis – biochemical, ADP Hunter fluorescence, primary and confirmatory, confirmation (AID 624330); type: functional
T3 sequence (Q9H0H5 whole entry): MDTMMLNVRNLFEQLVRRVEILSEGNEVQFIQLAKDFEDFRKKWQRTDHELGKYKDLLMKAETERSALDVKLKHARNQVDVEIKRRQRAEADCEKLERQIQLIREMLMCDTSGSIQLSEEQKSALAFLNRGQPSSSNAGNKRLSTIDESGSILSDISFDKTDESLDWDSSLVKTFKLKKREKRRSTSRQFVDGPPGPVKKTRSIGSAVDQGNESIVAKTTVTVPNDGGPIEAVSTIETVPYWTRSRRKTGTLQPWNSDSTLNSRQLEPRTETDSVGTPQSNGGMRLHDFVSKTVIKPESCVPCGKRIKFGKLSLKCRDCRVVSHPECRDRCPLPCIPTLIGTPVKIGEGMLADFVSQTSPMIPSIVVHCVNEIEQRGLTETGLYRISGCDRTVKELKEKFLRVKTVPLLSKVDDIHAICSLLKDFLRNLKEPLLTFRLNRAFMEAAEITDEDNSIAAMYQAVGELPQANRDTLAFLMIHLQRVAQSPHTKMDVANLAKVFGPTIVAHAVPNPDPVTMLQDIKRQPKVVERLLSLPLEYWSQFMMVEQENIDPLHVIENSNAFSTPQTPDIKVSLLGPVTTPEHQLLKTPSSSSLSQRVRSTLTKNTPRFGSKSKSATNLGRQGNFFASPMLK

[14] = biological target: T4, Caspase-6 (Homo sapiens, UniProt P55212); assay: inhibition of CASP6 peptide cleavage – biochemical, VEID-R110 fluorescence, cherry-pick, dose response (AID 720632)
T4 sequence (P55212 whole entry): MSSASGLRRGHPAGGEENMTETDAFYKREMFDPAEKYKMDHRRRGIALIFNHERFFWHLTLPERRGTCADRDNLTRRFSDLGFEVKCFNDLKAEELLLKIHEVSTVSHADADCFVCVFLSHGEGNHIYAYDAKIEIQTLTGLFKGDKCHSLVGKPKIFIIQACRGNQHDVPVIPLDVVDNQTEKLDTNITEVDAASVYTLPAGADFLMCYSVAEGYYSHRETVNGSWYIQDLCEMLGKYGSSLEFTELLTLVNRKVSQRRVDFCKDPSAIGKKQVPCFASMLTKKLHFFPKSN

[15] = biological target: Genome polyprotein (dengue virus type 2, UniProt P29990); assay: flavivirus cap methylation enzyme inhibition – biochemical, confirmation dose response, primary screen (AID 588689); type: functional
[16] = viability loss in HeLa cells – cytotoxicity control for MgcRacGAP inhibitor project, dose response (AID 624300); type: functional
[17] = biological target: T5, Protein skinhead-1 (Caenorhabditis elegans, UniProt P34707); type: functional
T5 sequence (P34707 whole entry): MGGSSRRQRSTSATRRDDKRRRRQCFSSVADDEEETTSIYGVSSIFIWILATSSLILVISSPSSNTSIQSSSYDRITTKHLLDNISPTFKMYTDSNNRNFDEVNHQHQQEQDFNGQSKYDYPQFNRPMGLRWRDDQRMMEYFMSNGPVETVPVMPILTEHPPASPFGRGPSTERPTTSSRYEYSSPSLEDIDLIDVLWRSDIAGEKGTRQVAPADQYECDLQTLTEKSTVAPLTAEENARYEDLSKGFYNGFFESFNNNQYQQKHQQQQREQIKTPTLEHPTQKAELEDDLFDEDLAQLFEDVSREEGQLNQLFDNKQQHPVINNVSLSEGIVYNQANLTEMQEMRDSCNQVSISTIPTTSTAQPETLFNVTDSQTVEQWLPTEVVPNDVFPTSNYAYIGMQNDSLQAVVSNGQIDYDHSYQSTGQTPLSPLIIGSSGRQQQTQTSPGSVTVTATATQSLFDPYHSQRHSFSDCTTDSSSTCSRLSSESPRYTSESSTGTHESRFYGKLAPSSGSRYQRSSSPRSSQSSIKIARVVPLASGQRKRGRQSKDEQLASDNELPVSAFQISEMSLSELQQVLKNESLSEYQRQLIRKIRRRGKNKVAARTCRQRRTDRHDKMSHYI

[18] = biological target: T6, Short transient receptor potential channel 4 (Mus musculus, UniProt Q9QUQ5); assay: SAR Analysis for the identification of selective inhibits of the transient receptor potential cation channel C4 (TRPC4): Automated Electrophysiology_2. [Related pubchem assays (depositor defined):AID2256]; type: functional
T6 sequence (Q9QUQ5 whole entry): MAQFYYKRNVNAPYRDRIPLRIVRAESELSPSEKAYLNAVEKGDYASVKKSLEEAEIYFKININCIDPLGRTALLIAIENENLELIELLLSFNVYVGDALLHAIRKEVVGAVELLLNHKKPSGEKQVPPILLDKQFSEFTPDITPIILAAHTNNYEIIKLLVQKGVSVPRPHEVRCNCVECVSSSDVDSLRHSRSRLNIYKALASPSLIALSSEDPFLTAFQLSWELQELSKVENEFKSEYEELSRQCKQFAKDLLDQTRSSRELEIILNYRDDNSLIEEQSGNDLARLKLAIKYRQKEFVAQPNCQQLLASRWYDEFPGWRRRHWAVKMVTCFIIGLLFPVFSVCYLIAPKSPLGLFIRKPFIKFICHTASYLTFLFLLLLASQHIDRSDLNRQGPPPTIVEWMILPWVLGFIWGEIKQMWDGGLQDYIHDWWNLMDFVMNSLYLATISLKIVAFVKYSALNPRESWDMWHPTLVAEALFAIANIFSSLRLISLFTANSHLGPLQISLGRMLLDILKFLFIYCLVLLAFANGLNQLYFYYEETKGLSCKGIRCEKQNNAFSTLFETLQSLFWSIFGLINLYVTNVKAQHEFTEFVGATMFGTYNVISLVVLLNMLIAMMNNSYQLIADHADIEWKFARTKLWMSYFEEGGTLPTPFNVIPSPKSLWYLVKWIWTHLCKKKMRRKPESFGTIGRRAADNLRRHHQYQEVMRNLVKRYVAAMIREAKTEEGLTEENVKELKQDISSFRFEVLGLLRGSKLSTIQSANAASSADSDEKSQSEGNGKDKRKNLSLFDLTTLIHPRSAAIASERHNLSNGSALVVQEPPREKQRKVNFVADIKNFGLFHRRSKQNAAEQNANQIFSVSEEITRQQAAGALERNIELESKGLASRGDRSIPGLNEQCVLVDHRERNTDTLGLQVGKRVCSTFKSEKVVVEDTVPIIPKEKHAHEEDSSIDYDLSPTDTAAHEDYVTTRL

[19] = biological target: T6, Short transient receptor potential channel 4; assay: potency of mouse TRPC4 calcium flux blockers – cell-based, HEK293 TRPC4/mu-opioid, DAMGO stimulus, Fluo-4, dose response (AID 492994); type: functional
[20] = biological target: T6, Short transient receptor potential channel 4; assay: SAR Analysis for the identification of selective inhibitors of the transient receptor potential cation channel C4 (TRPC4): TRPC4 Serotonin Receptor CRC MPD assay. [Related pubchem assays (depositor defined):AID2247, AID2256]; type: functional
[21] = biological target: Short transient receptor potential channel 6 (Mus musculus, UniProt Q61143); assay: mouse TRPC6 channel blockers, concentration series – HEK293 cells, membrane potential dye, IC50, selectivity assay for selective TRPC4 inhibitor project, dose response (AID 492987); type: functional, cell-based
Sequence of Short transient receptor potential channel 6 (Q61143 whole entry): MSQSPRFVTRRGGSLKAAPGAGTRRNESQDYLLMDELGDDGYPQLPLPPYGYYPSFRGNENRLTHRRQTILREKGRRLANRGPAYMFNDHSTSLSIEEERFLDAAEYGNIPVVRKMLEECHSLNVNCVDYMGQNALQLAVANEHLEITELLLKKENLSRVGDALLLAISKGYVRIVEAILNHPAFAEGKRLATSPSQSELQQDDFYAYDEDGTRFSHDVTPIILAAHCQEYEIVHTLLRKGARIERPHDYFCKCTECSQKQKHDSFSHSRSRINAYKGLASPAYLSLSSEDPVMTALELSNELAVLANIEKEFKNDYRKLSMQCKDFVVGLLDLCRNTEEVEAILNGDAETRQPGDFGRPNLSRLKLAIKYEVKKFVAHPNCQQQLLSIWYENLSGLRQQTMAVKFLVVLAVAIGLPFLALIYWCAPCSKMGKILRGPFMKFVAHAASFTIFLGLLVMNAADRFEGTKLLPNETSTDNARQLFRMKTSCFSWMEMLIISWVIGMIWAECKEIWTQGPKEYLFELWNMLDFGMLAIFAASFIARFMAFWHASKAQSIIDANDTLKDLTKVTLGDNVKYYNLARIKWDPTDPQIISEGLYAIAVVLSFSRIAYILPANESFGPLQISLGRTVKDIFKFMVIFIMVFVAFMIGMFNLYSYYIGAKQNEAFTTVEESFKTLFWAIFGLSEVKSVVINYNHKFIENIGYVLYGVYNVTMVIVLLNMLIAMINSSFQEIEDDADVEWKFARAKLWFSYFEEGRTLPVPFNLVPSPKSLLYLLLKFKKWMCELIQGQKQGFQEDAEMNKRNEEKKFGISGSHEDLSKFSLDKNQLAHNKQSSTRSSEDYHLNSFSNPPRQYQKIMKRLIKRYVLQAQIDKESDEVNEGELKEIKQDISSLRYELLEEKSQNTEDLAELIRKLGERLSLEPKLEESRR

[22] = biological target: T6, Short transient receptor potential channel 4; assay: mouse TRPC4 block via Gq-coupled stimulation – cell-based, acetylcholine stimulus, HEK293 TRPC4, Fluo-4, SAR follow-up (AID 492996); type: functional
[23] = biological target: Voltage-gated inwardly rectifying potassium channel KCNH2 (Homo sapiens, UniProt Q12809); settings: Potency;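 also: confirmatory quantitative high-throughput screen measuring inhibition of hERG channel activity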
Sequence of Voltage-gated inwardly rectifying potassium channel KCNH2 (Q12809 whole entry): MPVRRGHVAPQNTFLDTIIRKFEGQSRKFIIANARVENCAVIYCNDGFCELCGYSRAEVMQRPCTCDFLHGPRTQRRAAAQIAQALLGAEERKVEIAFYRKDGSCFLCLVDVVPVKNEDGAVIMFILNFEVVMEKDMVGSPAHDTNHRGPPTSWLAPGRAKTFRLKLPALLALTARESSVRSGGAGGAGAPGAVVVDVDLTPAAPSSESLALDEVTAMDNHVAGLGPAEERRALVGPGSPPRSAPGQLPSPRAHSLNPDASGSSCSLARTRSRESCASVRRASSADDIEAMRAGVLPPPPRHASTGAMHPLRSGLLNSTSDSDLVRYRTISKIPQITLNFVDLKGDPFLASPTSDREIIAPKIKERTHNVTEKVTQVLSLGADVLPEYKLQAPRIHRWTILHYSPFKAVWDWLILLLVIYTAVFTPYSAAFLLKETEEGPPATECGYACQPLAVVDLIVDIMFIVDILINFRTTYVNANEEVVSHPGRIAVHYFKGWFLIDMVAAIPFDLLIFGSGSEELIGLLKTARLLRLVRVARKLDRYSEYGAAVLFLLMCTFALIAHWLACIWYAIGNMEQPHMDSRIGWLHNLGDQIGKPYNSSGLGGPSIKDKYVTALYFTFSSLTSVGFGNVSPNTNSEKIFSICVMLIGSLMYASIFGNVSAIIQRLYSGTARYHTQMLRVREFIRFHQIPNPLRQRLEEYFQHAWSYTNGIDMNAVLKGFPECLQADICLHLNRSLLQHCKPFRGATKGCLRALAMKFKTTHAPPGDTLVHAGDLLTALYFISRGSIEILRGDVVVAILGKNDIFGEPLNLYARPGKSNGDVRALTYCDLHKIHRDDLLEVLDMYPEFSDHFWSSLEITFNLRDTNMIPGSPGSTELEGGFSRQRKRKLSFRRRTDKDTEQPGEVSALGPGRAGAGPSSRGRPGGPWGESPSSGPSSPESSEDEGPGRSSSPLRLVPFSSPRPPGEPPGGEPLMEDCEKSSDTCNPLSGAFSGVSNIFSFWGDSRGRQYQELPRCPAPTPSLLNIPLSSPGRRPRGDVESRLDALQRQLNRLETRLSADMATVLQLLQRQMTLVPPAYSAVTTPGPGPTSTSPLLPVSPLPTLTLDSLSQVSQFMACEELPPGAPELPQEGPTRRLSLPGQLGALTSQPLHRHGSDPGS

Sequence of Trypsin (P00761 whole entry): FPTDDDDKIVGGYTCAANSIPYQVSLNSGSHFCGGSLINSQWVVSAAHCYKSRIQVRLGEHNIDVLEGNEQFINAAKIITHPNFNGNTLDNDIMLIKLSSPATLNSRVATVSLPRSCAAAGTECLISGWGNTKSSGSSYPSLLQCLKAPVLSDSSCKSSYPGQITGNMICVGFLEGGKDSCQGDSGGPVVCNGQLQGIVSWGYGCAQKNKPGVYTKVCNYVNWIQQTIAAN

Structure (SMILES): CC(=O)NN1C(=O)c2ccccc2NC1c1ccoc1 (stereo not drawn)
- AC50 [1]: 32.4 µM (active)
- AC50 [2]: > 100 µM (inactive)

Structure (SMILES): CCS(=O)(=O)N1Cc2ccccc2CC1C(=O)Nc1nc2ccccc2s1 (stereo not drawn)
- AC50 [3]: 4.56 µM (active)
- AC50 [4]: 15.2 µM (active)
- AC50 [5]: 4.13 µM (active)

Structure (SMILES): COC(=O)c1ccc(Cl)cc1NC(=O)/C=C/c1ccc(C)o1
- AC50 [6]: 83 µM (active)

Structure (SMILES): O=C1C(Br)=C(N2CCN(CCOCCO)CC2)C(=O)c2c(O)ccc(O)c21
- CC50 [7]: 8.58 µM (active)
- AC50 [8]: 7.21 µM (active)
- IC50 [9]: > 66 µM (inactive)
- IC50 [10]: 7.46 µM (active)
- IC50 [11]: 38.7 µM (inactive)
- AC50 [12]: 7.03 µM (active)
- IC50 [13]: 34.8 µM (active)
- AC50 [14]: 0.343 µM (active)
- IC50 [15]: 5.11 µM (active)
- CC50 [16]: 12.6 µM (active)
- IC50 [17]: 79.6 µM (inactive)

Structure (SMILES): Cc1cc(N2CCCC2)nc2ccc(F)cc12
- IC50 [18]: 3.94 µM (active)
- IC50 [19]: 0.93 µM (active)
- IC50 [20]: 1.41 µM (active)
- IC50 [21]: 7.76 µM (active)
- IC50 [22]: 17.4 µM (active)

Structure (SMILES): C=CCN1CC[C@]23c4c5ccc(O)c4O[C@@H]2/C(=N/N=C2\CC[C@@]4(O)C6Cc7ccc(O)c8c7[C@@]4(CCN6CC=C)[C@@H]2O8)CC[C@@]3(O)C1C5
- AC50 [23]: 20 µM (inconclusive)

Reference: ChEMBL document CHEMBL1201862, “PubChem BioAssay data set” (2004)
